In this experiment the test system is NLRP3. Nature of the experiment: IL-1β secretion assay in PMA-differentiated, LPS/nigericin-stimulated THP-1 cells (384-well, ELISA read-out). It is filed as cell-based, human. To be noted: Homo sapiens. Summed up: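 Secreted IL-1β quantified by capture ELISA from supernatants of PMA-differentiated THP-1 cells (30K per well). Sequence: LPS 25 ng/mL priming 2 h, compound 1 h, nigericin 2 h; dose-responses normalized between high (LPS plus 5 μM nigericin) and low (LPS alone) controls.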
On the technique in general: ELISA stands for enzyme-linked immunosorbent assay.

The mark [1] stands for this setting: THP-1, IL-1β secretion, PMA-differentiated THP-1 cells, LPS then nigericin stimulation, ELISA read at 450 nm, read-out: Activity.
Where [2] appears, read: THP-1, Table 4, IL-1β secretion, LPS/nigericin-stimulated THP-1 cells, read-out: IC50.

Like-named read-outs stand apart in the source and are kept apart here. Bounds are passed on as bounds.

For `N#Cc1cnc(NC(=O)CN2CC3(CC3)c3c(ccc(Br)c3F)C2=O)c(F)c1` [Example 106, 2-(6-bromo-5-fluoro-1-oxospiro[3H-isoquinoline-4,1′-cyclopropane]-2-yl)-N-(5-cyano-3-fluoropyridin-2-yl)acetamide], the IC50 under setting [1] is less than 10 µM and the IC50 under setting [2] was 0.156 µM.

In the case of `N#Cc1ccnc(NC(=O)CN2CC3(CC3)c3cc(Br)ccc3C2=O)n1` [Example 107, 2-(6-bromo-1-oxospiro[3H-isoquinoline-4,1′-cyclopropane]-2-yl)-N-(4-cyanopyrimidin-2-yl)acetamide], the IC50 is less than 10 µM under setting [1] and 2.82 µM under setting [2].

Regarding `O=C(CN1CC2(CC2)c2c(ccc(I)c2F)C1=O)Nc1ncc(F)cn1` [Example 108, 2-(5-fluoro-6-iodo-1-oxospiro[3H-isoquinoline-4,1′-cyclopropane]-2-yl)-N-(5-fluoropyrimidin-2-yl)acetamide], the IC50 reads like this: under setting [1], less than 10 µM; under setting [2], 0.018 µM.

With `O=C(CN1C[C@]2(C[C@H]2F)c2cc(Br)ccc2C1=O)Nc1ncccn1` [Example 109], the IC50 runs as follows: under setting [1], less than 10 µM; under setting [2], 0.036 µM.

Regarding `O=C(CN1C[C@]2(C[C@H]2F)c2cc(Br)ccc2C1=O)Nc1ncc(Cl)cn1` [Example 110], the IC50 is less than 10 µM under setting [1] and 0.012 µM under setting [2].

With `O=C(CN1CC2(CC2)c2cc(Br)ccc2C1=O)NC1CC(C(F)F)C1` (stereo not drawn) [Example 111, 2-(6-bromo-1-oxospiro[3H-isoquinoline-4,1′-cyclopropane]-2-yl)-N-[3-(difluoromethyl)cyclobutyl]acetamide], the IC50 reads like this: under setting [1], less than 10 µM; under setting [2], 2.42 µM.

As for `O=C(CN1CC2(CC2)c2cc(Br)ccc2C1=O)NCC1(CC(F)F)CCC1` [Example 112, 2-(6-bromo-1-oxospiro[3H-isoquinoline-4,1′-cyclopropane]-2-yl)-N-[[1-(2,2-difluoroethyl)cyclobutyl]methyl]acetamide], the IC50 reads like this: under setting [1], more than 15 µM; under setting [2], 13 µM.

Consider `O=C(CN1CC2(CC2)c2cc(Br)ccc2C1=O)Nc1ccccc1OC(F)F` [Example 113, 2-(6-bromo-1-oxospiro[3H-isoquinoline-4,1′-cyclopropane]-2-yl)-N-[2-(difluoromethoxy)phenyl]acetamide], for which the IC50 is, setting by setting: under setting [1], less than 10 µM; under setting [2], 4.18 µM.

`Cc1cccc(NC(=O)CN2CC3(CC3)c3cc(Br)ccc3C2=O)n1` [Example 114, 2-(6-bromo-1-oxospiro[3H-isoquinoline-4,1′-cyclopropane]-2-yl)-N-(6-methylpyridin-2-yl)acetamide]: the IC50 reads like this: under setting [1], less than 10 µM; under setting [2], 1.99 µM.

With `Cc1noc(NC(=O)CN2CC3(CC3)c3cc(Br)ccc3C2=O)c1C` [Example 115, 2-(6-bromo-1-oxospiro[3H-isoquinoline-4,1′-cyclopropane]-2-yl)-N-(3,4-dimethyl-1,2-oxazol-5-yl)acetamide], the IC50 under setting [1] was more than 15 µM and the IC50 under setting [2] is 15.4 µM.

Take `O=C(CN1CC2(CC2)c2cc(Br)ccc2C1=O)Nc1cccc2nccn12` [Example 116, 2-(6-bromo-1-oxospiro[3H-isoquinoline-4,1′-cyclopropane]-2-yl)-N-imidazo[1,2-a]pyridin-5-ylacetamide]: the IC50 under setting [1] was less than 10 µM and the IC50 under setting [2] came out at 4.16 µM.

As for `O=C(CN1CC2(CC2)c2cc(Br)ccc2C1=O)NCC1COC1` [Example 117, 2-(6-bromo-1-oxospiro[3H-isoquinoline-4,1′-cyclopropane]-2-yl)-N-(oxetan-3-ylmethyl)acetamide], the IC50 by setting is: under setting [1], more than 15 µM; under setting [2], 19.8 µM.

On to `O=C(CN1CC2(CC2)c2cc(Br)ccc2C1=O)NC1CS(=O)(=O)C1` [Example 118, 2-(6-bromo-1-oxospiro[3H-isoquinoline-4,1′-cyclopropane]-2-yl)-N-(1,1-dioxothietan-3-yl)acetamide], for which the IC50 reads like this: under setting [1], more than 15 µM; under setting [2], 22.4 µM.

Take `O=C(CN1CC2(CC2)c2cc(Br)ccc2C1=O)NCc1ncco1` [Example 119, 2-(6-bromo-1-oxospiro[3H-isoquinoline-4,1′-cyclopropane]-2-yl)-N-(1,3-oxazol-2-ylmethyl)acetamide]: the IC50 is more than 15 µM under setting [1] and 30.1 µM under setting [2].

For `Cn1ccnc1CNC(=O)CN1CC2(CC2)c2cc(Br)ccc2C1=O` [Example 120, 2-(6-bromo-1-oxospiro[3H-isoquinoline-4,1′-cyclopropane]-2-yl)-N-[(1-methylimidazol-2-yl)methyl]acetamide], the IC50 under setting [1] was more than 15 µM and the IC50 under setting [2] was 24.8 µM.

On to `O=C(CN1CC2(CC2)c2cc(Br)ccc2C1=O)NCCn1ccnc1` [Example 121, 2-(6-bromo-1-oxospiro[3H-isoquinoline-4,1′-cyclopropane]-2-yl)-N-(2-imidazol-1-ylethyl)acetamide], for which the IC50 under setting [1] fell in the range of 10 to 15 µM and the IC50 under setting [2] came out at 12.1 µM.

For `O=C(CN1CC2(CC2)c2cc(Br)ccc2C1=O)NCc1ccncc1` [Example 122, 2-(6-bromo-1-oxospiro[3H-isoquinoline-4,1′-cyclopropane]-2-yl)-N-(pyridin-4-ylmethyl)acetamide], the IC50 by setting is: under setting [1], more than 15 µM; under setting [2], 29.9 µM.

For `CN(Cc1cnn(C)c1)C(=O)CN1CC2(CC2)c2cc(Br)ccc2C1=O` [Example 123, 2-(6-bromo-1-oxospiro[3H-isoquinoline-4,1′-cyclopropane]-2-yl)-N-methyl-N-[(1-methylpyrazol-4-yl)methyl]acetamide], the IC50 was more than 15 µM under setting [1] and 34.9 µM under setting [2].

In the case of `Cn1nccc1CNC(=O)CN1CC2(CC2)c2cc(Br)ccc2C1=O` [Example 124, 2-(6-bromo-1-oxospiro[3H-isoquinoline-4,1′-cyclopropane]-2-yl)-N-[(2-methylpyrazol-3-yl)methyl]acetamide], the IC50 is, setting by setting: under setting [1], more than 15 µM; under setting [2], 27.7 µM.

With `O=C(CN1CC2(CC2)c2cc(Br)ccc2C1=O)N1Cc2cccnc2C1` [Example 125, 6-bromo-2-[2-(5,7-dihydropyrrolo[3,4-b]pyridin-6-yl)-2-oxoethyl]spiro[3H-isoquinoline-4,1′-cyclopropane]-1-one], the IC50 was more than 15 µM under setting [1] and 26.7 µM under setting [2].

`Cn1nc(C2CC2)cc1NC(=O)CN1CC2(CC2)c2cc(Br)ccc2C1=O` [Example 126, 2-(6-bromo-1-oxospiro[3H-isoquinoline-4,1′-cyclopropane]-2-yl)-N-(5-cyclopropyl-2-methylpyrazol-3-yl)acetamide]: the IC50 was more than 15 µM under setting [1] and 15.4 µM under setting [2].

Turning to `O=C(CN1CC2(CC2)c2cc(Br)ccc2C1=O)Nc1ccccc1` [Example 127, 2-(6-bromo-1-oxospiro[3H-isoquinoline-4,1′-cyclopropane]-2-yl)-N-phenylacetamide], the IC50 under setting [1] is less than 10 µM and the IC50 under setting [2] stood at 1.67 µM.

For `O=C(CN1CC2(CC2)c2cc(Br)ccc2C1=O)NCCN1CCOCC1` [Example 128, 2-(6-bromo-1-oxospiro[3H-isoquinoline-4,1′-cyclopropane]-2-yl)-N-(2-morpholin-4-ylethyl)acetamide], the IC50 is 10 to 15 µM under setting [1] and 12 µM under setting [2].

Turning to `O=C(CN1CC2(CC2)c2cc(Br)ccc2C1=O)NC1Cc2ccccc2C1` [Example 129, 2-(6-bromo-1-oxospiro[3H-isoquinoline-4,1′-cyclopropane]-2-yl)-N-(2,3-dihydro-1H-inden-2-yl)acetamide], the IC50 runs as follows: under setting [1], less than 10 µM; under setting [2], 7.2 µM.

(Values after patent US20230416205A1, “COMPOUNDS, COMPOSITIONS, AND METHODS” (Denali Therapeutics Inc, priority 2020, published 2023).)
